Measured values from publication PMC3901259, “Characterisation of the Metabolites of 1,8-Cineole Transferred into Human Milk: Concentrations and Ratio of Enantiomers” (Metabolites, 2013).

Experiments:
[1] = Quantification of 1,8-cineole metabolites in human milk (SAFE, GC-MS, internal standard and matrix calibration) after oral intake of 100 mg 1,8-cineole; format: in vivo; conditions: for Absolute concentration in human milk: single determination
Source text: Human milk samples were provided voluntarily by breastfeeding mothers after intake of the non-prescription pharmaceutical Soledum® (Klosterfrau Healthcare Group, Cologne, Germany). Before the beginning of the study, the participants were informed verbally, as well as in written form, about the study procedure and purpose and they were told that withdrawing from the study was possible at any time without giving any reason. All volunteers gave written consent to the analysis of their milk samples and anonymous publication of the resulting data. The Ethical Committee of the Medical Faculty, University Erlangen-Nuremberg, approved the experimental procedures. Each participant was handed a copy of the Soldeum® package instructions and was advised to read it before capsule intake. They were also advised to withdraw from the study if any negative reactions such as medication allergies or interactions with other drugs they were taking were to be expected. Additionally, the volunteers were informed verbally about potential effects of the pharmaceutical preparation on breastfeeding, i.e. the risk of an altered milk flavour and rejection of the milk by the nursling. Accordingly, if this would happen, the mothers were recommended to feed their babies with stored human milk or formula milk products.
The milk donors were between the ages of 29 and 40 years (mean 34 years). During their participation in the study, their breast milk production had to be normal and in excess of their infants' needs, with no breast infections and no overall medical complaints present. Five participants were primiparous, three were multiparous and the breast milk samples were from 19 weeks to 19 months postpartum. For sampling, either electrical or mechanical breast pumps or manual expression techniques were applied, resulting in sample volumes between 10 and 100 mL. The samples were immediately subjected to sample preparation after a maximum storage time of five hours at 7 °C or were stored in a freezer at −20 °C for up to five days.
The participating volunteers were asked to ingest one Soledum® capsule, containing 100 mg 1,8-cineole, and to wait until they themselves or another person began to notice the eucalyptus-like odour on their breath. […] The donors were instructed to keep notes on the dates of capsule intake, first eucalyptus-like odour on their breath and exact sampling time. Unfortunately it was difficult for some mothers to detect the smell on their breath so they expressed the samples after some time without having noticed the smell, or reported having been unsure about the smell. […] Some of the donors repeated the whole experiment and some expressed more than one sample after the capsule intake, resulting in 14 samples in total, from 8 different mothers.
Extracts containing the volatile fraction of the human milk samples were prepared by Solvent Assisted Flavour Evaporation (SAFE) after addition of deuterated 1,8-cineole as internal standard (solution in dichloromethane), followed by 10 min of stirring, then another addition of dichloromethane (50% v/v), and 30 min of stirring. The resulting stable phase was distilled in the SAFE-apparatus at 50 °C and approximately 1x10^−4 mbar. The volatile fraction of the samples was frozen with liquid nitrogen. After thawing, it consisted of two phases, formed by the dichloromethane and by the water out of the milk. The water phase was extracted three times with dichloromethane, and the solvent phases were combined and dried over anhydrous Na2SO4. Finally the sample extracts were concentrated by microdistillation according to Bemelmans at 50 °C to a total volume of 50 to 200 μL.
For GC-MS analyses, an Agilent MSD quadrupole system (GC 7890A with MSD 5975C, Agilent Technologies, Waldbronn, Germany) coupled with a CIS 4C (cooled injection system) and an MPS 2 auto-sampler (Gerstel GmbH & Co. KG, Duisburg, Germany) were used. […]

[2] = Determination of the ratios of enantiomers of chiral metabolites in human milk on chiral GC capillaries; format: in vivo; conditions: for Percentage E1: B-2b, B-2c of the same parent
Source text: The separation of the chiral metabolites of 1,8-cineole was successfully achieved using different β- or γ-cyclodextrin-based stationary phases (Rt-bDEXsa, Rt-bDEXse, Rt-bDEXsm and Rt-yDEXsa) for gas chromatographic analysis. Table S1, in the supplementary material, lists the usable separation phases and the respective retention indices (determined according to van den Dool and Kratz) for each pair of enantiomers. It was therefore decided to use the following capillaries for the analysis of the human milk samples: Rt-bDEXsm for separation of 2,3-dehydro-, α2,3-epoxy-, 2-oxo-, 3-oxo- and 9-hydroxy-1,8-cineole, and Rt-yDEXsa for separation of α2-hydroxy-, α3-hydroxy- and β2-hydroxy-1,8-cineole, under the GC conditions described in the experimental section.
For GC-MS analyses, an Agilent MSD quadrupole system (GC 7890A with MSD 5975C, Agilent Technologies, Waldbronn, Germany) coupled with a CIS 4C (cooled injection system) and an MPS 2 auto-sampler (Gerstel GmbH & Co. KG, Duisburg, Germany) were used. Data collection and analysis were performed with the MSD ChemStation E.02.00.493 (Agilent Technologies, Inc.) software. Quantification experiments were carried out on DB-FFAP and DB-5 capillaries (30 m length, 0.25 mm inner diameter, 0.25 µm film thickness, Agilent J&W GC Columns, USA), and for monitoring of the ratio of enantiomers the chiral capillaries Rt-bDEXsa, Rt-bDEXse, Rt-bDEXsm and Rt-yDEXsa (30 m length, 0.32 mm inner diameter, 0.25 µm film thickness, Restek GmbH, Bad Homburg, Germany) were utilised. Pre-columns of uncoated, deactivated fused silica (0.53 mm inner diameter, 0.5 to 3.5 m length) were used to ensure that no potentially present low-volatile residues could contaminate the analytical capillaries. The temperature programme of the column oven was as follows: 40 °C for 2 min, 4 °C/min up to 170 °C, 40 °C/min up to 230 °C (Rt-DEX capillaries), 240 °C (DB-FFAP) and 250 °C (DB-5), respectively, and hold time at end temperature of 5 to 10 min. As carrier gas, helium was used at a flow rate of 1.3 mL/min (velocity 41.1 cm/s). Injection of 1 or 2 µL was performed by the auto-sampler.
For the separation of the pairs of enantiomers of the chiral metabolites of 1,8-cineole, four different capillaries (Rt-bDEXsa, Rt-bDEXse, Rt-bDEXsm, and Rt-yDEXsa) were evaluated for optimisation of the peak-to-peak resolution of the enantiomers by injecting a mixture of all the metabolites in a dichloromethane solution and by varying the heating rate. Besides the separation of each pair of enantiomers from each other, it was also important to confirm that no other metabolite coeluted with any one of the enantiomers, because the milk samples would most probably contain all metabolites. Moreover, the separation conditions for the mixture of reference substances were also tested on some human milk sample extracts and modified accordingly, where necessary, to avoid coelution with interfering matrix compounds.
For calculation of the ratio of enantiomers (that is, the relative abundance of each enantiomer to the not separated mixture of enantiomers), the peak area of each enantiomer was divided by the sum of the peak areas of both enantiomers and multiplied by 100. With the known concentrations of the chiral metabolites in each milk sample, the absolute concentration of each single enantiomer was also calculated by multiplying the concentration with the respective percentage.

[3] = set-up: method as in doi:10.1002/cplu.201200253; conditions: urine after 100 mg 1,8-cineole; cited from earlier work
[4] = set-up: method as in PMID 20425757; conditions: one volunteer, sage tea, overall intake 1.02 mg 1,8-cineole; cited from earlier work
[5] = sample A-1a (no odour), oral 100 mg 1,8-cineole, values given with (<x) lie beyond calibration range, approximation
[6] = sample A-1b (odour yes), oral 100 mg 1,8-cineole, values given with (<x) are approximations
[7] = sample B-1 (odour yes), oral 100 mg 1,8-cineole, values given with (<x) are approximations
[8] = sample B-2a (no odour), oral 100 mg 1,8-cineole
[9] = sample B-2b (odour yes), oral 100 mg 1,8-cineole, values given with (<x) are approximations
[10] = sample B-2c (no odour), oral 100 mg 1,8-cineole
[11] = sample D-1 (no odour), oral 100 mg 1,8-cineole, values given with (<x) are approximations
[12] = sample D-2 (odour yes), oral 100 mg 1,8-cineole, values given with (<x) are approximations
[13] = sample E-2 (odour yes), oral 100 mg 1,8-cineole, values given with (<x) are approximations
[14] = sample F (no odour), parent ingested two capsules, values given with (<x) are approximations
[15] = sample F (no odour), two capsules
[16] = sample G (odour yes), oral 100 mg 1,8-cineole, values given with (<x) are approximations
[17] = sample H (odour yes), oral 100 mg 1,8-cineole, values given with (<x) are approximations

Row | SMILES | Estimated maximum level in human milk (concentration calculated with the last calibration point, in parentheses) ([1]; sample A-1a (no odour)) [µg/kg] | Absolute concentration in human milk [1, 5] [µg/kg] | Absolute concentration in human milk [1, 6] [µg/kg] | Absolute concentration in human milk [1, 7] [µg/kg] | Absolute concentration in human milk [1, 8] [µg/kg] | Absolute concentration in human milk [1, 9] [µg/kg] | Absolute concentration in human milk [1, 10] [µg/kg] | Absolute concentration in human milk [1, 11] [µg/kg] | Absolute concentration in human milk [1, 12] [µg/kg] | Absolute concentration in human milk [1, 13] [µg/kg] | Absolute concentration in human milk [1, 14] [µg/kg] | Estimated maximum level in human milk (concentration calculated with the last calibration point, in parentheses) [1, 15] [µg/kg] | Absolute concentration in human milk [1, 16] [µg/kg] | Absolute concentration in human milk [1, 17] [µg/kg] | Presence in human urine [3] | Estimated maximum level in human milk (concentration calculated with the last calibration point, in parentheses) ([1]; sample A-1b (odour yes)) [µg/kg] | Estimated maximum level in human milk (concentration calculated with the last calibration point, in parentheses) ([1]; sample B-1 (odour yes)) [µg/kg] | Estimated maximum level in human milk (concentration calculated with the last calibration point, in parentheses) ([1]; sample B-2b (odour yes)) [µg/kg] | Estimated maximum level in human milk (concentration calculated with the last calibration point, in parentheses) ([1]; sample D-2 (odour yes)) [µg/kg] | Estimated maximum level in human milk (concentration calculated with the last calibration point, in parentheses) ([1]; sample H (odour yes)) [µg/kg] | other results
1 | CC12C=CC(CC1)C(C)(C)O2 (centres unmarked) [2,3-dehydro-1,8-cineole, 2,3-Dehydro-1,8-cineole] | < 1.26 | 0.28 | 4.07 | 13.65 | 0.07 | 2.80 | 0.57 | 0.45 | 5.13 | 9.63 | 0.59 | < 2.40 | 21.24 | 37.69 | could not be found |  |  |  |  |  | Estimated maximum level in human milk (concentration calculated with the last calibration point, in parentheses) ([1]; sample C (no odour)): < 0.88 µg/kg; Absolute concentration in human milk ([1]; sample C (no odour; very weak odour not caused by 1,8-cineole), oral 100 mg 1,8-cineole, values given with (<x) are approximations): 0.73 µg/kg; Estimated maximum level in human milk (concentration calculated with the last calibration point, in parentheses) ([1]; sample D-1 (no odour)): < 0.97 µg/kg; Estimated maximum level in human milk (concentration calculated with the last calibration point, in parentheses) ([1]; sample E-1 (no odour)): < 1.21 µg/kg; Absolute concentration in human milk ([1]; sample E-1 (no odour), oral 100 mg 1,8-cineole, values given with (<x) are approximations): 0.19 µg/kg; Percentage E1 in single sample (outlier) ([2]; human milk sample B-2a, excluded from Table 3): 100%
2 | CC12CCC(CC1=O)C(C)(C)O2 (centres unmarked) [2-oxo-1,8-cineole] | < 1.57 | 0.13 | 0.53 | 0.91 |  | 0.34 | 0.07 |  | 0.85 | 1.71 | 2.71 | < 3.00 |  | 0.86 | could not be found | < 1.31 | < 1.89 | < 2.37 | < 2.20 | < 2.24 | Estimated maximum level in human milk (concentration calculated with the last calibration point, in parentheses) ([1]; sample E-2 (odour yes)): < 2.03 µg/kg; Percentage E2 in single samples (outliers) ([2]; human milk samples B-1, B-2b and B-2c, excluded from Table 3): 100%
3 | CC12CCC(CC1)C(C)(CO)O2 (centres unmarked) [9-hydroxy-1,8-cineole] |  |  | 0.46 | 0.87 | 0.18 | 15.52 | 0.15 |  | 0.46 | 16.95 |  |  | 0.73 | 1.83 |  | < 1.08 | < 1.57 |  | < 1.82 | < 1.86 | Estimated maximum level in human milk (concentration calculated with the last calibration point, in parentheses) ([1]; sample G (odour yes)): < 3.33 µg/kg; Percentage E1 ([2]; one of the three samples B-2a): about 80%; Percentage E1 ([2]; the two other samples of B-2a): about 50%; Concentration in plasma [4]: 5.61 ng/mL
4 | CC1(C)OC2(C)CCC1C1OC12 (stereo not drawn) [a2,3-epoxy-1,8-cineole, α2,3-epoxy-1,8-cineole] |  |  | 2.48 | 7.65 |  | 2.18 | 0.66 | 1.35 | 4.13 | 4.65 |  |  | 4.52 | 6.82 | could not be found |  |  | < 2.45 |  |  | 
